Measurements from patent publication US20220280661A1, “GLUCOCORTICOID RECEPTOR RADIOLIGANDS AND METHODS FOR THEIR PREPARATION AND USE” (The Regents of the University of California, priority 2019, published 2022).
Where “and” joins values, the source holds several entries; their conditions need not be identical. Identical values can stand only once. Like-named read-outs stand apart in the source and are kept apart here.

Tests used:
[1] = from 90 min dynamic PET in C57B16/J mice
From the text: Normal Tissue Radiation Dose Estimation. Volumes of interest (VOIs) were drawn on coregistered CT images for brain, lungs, heart, liver, stomach, kidneys, and urinary bladder. All VOIs were either elliptical cylinder (5 mm long axis, 3 mm short axis, and 5 mm height for the brain), cylinders (3 mm diameter and 3 mm height for kidneys), or spheres (3 mm diameter for lungs, heart, liver, stomach, and urinary bladder), and they were placed well within the anatomical boundaries to minimize spill-over or spill-in of radioactivity. The mean values (in Bq/ml) in these VOIs were multiplied by standard mouse organ volumes (in ml) to estimate total activity (in Bq) within these organs. The total activity within the entire animal subtracted by all organ activities was used as activity in the remainder of the body. The percent of injected activity within the defined organs (% IA) was extrapolated to human-equivalent values using ratios of standard human organ weights to mouse organ weights.
These input % IA data for each organ and the remainder of the body were curve-fitted to derive time-integrated activity coefficients (also known as residence times) (in Bq-hr/Bq) and organ and whole-body effective doses for human equivalents were estimated using each mouse data. The data from the three animals were averaged to derive absorbed organs doses (in mGy/MBq) and whole-body effective dose (in mSv/MBq). Organ and effective dose estimations were performed using OLINDA version 2.0 using ICRP Publication 103 tissue weighting factors.
To explore the potential of (±)-^11C-YJH08 for human translation, a rodent dosimetry study was conducted in male and female C57B16/J mice ([…]). The human equivalent doses for an average adult male (73 kg) or an average adult female (60 kg) were calculated using OLINDA 2.0 incorporating ICRP103 tissue weighting factors based on region of interest analysis from 90 min dynamic PET acquisitions (Table 11). […] The values were calculated from a 90 min dynamic PET acquisition in intact male or female C57B16/J mice.

plasma protein = assay: Plasma protein binding, rapid equilibrium dialysis, mouse plasma; format: in vitro ADME; conditions: plasma (rapid equilibrium dialysis device), pH 7.4, mouse plasma
Method: (§1) Plasma Protein Binding Studies. The rapid equilibrium dialysis (RED) device inserts along with a Teflon base plate (Pierce, Rockford, Ill.) were used for the binding studies. The pH of the human or mouse plasma was adjusted to 7.4 prior to the experiment. DMSO stocks (1 mM) were spiked into the plasma to make a final concentration of 2 μM. The spiked plasma solutions (300 μL) were placed into the sample chamber (indicated by the red ring); and 500 μL of PBS buffer, pH 7.4, was placed into the adjacent chamber. The plate was incubated at 37° C. on an orbital shaker (250 rpm) for 4 hours.
(§2) After 4 hours, from the RED plate, aliquots (100 μL) were removed from each side of the insert (plasma and buffer) and dispensed into the 96-well plate. Subsequently, 100 μL of blank plasma was added to the buffer samples and 100 μL of blank buffer was added to all the collected plasma samples. 300 μL of quench solution (50% acetonitrile, 50% methanol, and 0.05% formic acid, warmed up at 37° C.) containing internal standards was added to each well. Plates were sealed, vortexed, and centrifuged at 4° C. for 15 minutes at 4000 rpm. The supernatant was transferred to fresh plates for LC/MS/MS analysis. The sample were analyzed on LC/MS/MS using an AB Sciex API 4000 instrument, coupled to a Shimadzu LC-20AD LC Pump system. Analytical samples were separated using a Waters Atlantis T3 dC18 reverse phase HPLC column (20 mm×2.1 mm) at a flow rate of 0.5 mL/min. The mobile phase consisted of 0.1% formic acid in water (solvent A) and 0.1% formic acid in acetonitrile (solvent B).
(§3) The percentage of test compound bound to protein was calculated by the following equations:
(§4) % Free=(Concentration in buffer chamber/Concentration in plasma chamber)×100%

[2] = as above; format: in vitro ADME; conditions: mouse, plasma, pH 7.4, mouse plasma
Method: as §1, §2, §3, §4

CC1=CC(C)(C)Nc2ccc3c(c21)C(Cc1ccc(F)cc1)Oc1cccc(O[11CH3])c1-3 (racemic) [(±)-^11C-YJH08]
Effective Dose (whole-body) ([1]; Adult female (60 kg)): 0.0065±0.004 mSv/MBq and 0.00649 ± 0.000433 mSv/MBq
human equivalent absorbed dose, Adrenals ([1]; Adult female (60 kg)): 0.00578 ± 0.000156 mGy/MBq
human equivalent absorbed dose, Brain ([1]; Adult female (60 kg)): 0.00229 ± 0.000078 mGy/MBq
human equivalent absorbed dose, Breasts ([1]; Adult female (60 kg)): 0.00286 ± 0.000129 mGy/MBq
human equivalent absorbed dose, Esophagus ([1]; Adult female (60 kg)): 0.00544 ± 0.000439 mGy/MBq
human equivalent absorbed dose, Eyes ([1]; Adult female (60 kg)): 0.00223 ± 0.000061 mGy/MBq
human equivalent absorbed dose, Gallbladder Wall ([1]; Adult female (60 kg)): 0.00459 ± 0.000041 mGy/MBq
human equivalent absorbed dose, Heart Wall ([1]; Adult female (60 kg)): 0.0257 ± 0.005677 mGy/MBq
human equivalent absorbed dose, Kidneys ([1]; Adult female (60 kg)): 0.00785 ± 0.001344 mGy/MBq
human equivalent absorbed dose, Left colon ([1]; Adult female (60 kg)): 0.00437 ± 0.000314 mGy/MBq
human equivalent absorbed dose, Liver ([1]; Adult female (60 kg)): 0.01863 ± 0.001258 mGy/MBq
human equivalent absorbed dose, Lungs ([1]; Adult female (60 kg)): 0.00909 ± 0.000339 mGy/MBq
human equivalent absorbed dose, Osteogenic Cells ([1]; Adult female (60 kg)): 0.00217 ± 0.000069 mGy/MBq
human equivalent absorbed dose, Ovaries ([1]; Adult female (60 kg)): 0.00288 ± 0.000090 mGy/MBq
human equivalent absorbed dose, Pancreas ([1]; Adult female (60 kg)): 0.00545 ± 0.000182 mGy/MBq
human equivalent absorbed dose, Rectum ([1]; Adult female (60 kg)): 0.0028 ± 0.000087 mGy/MBq
human equivalent absorbed dose, Red Marrow ([1]; Adult female (60 kg)): 0.00289 ± 0.000101 mGy/MBq
human equivalent absorbed dose, Right colon ([1]; Adult female (60 kg)): 0.00339 ± 0.000070 mGy/MBq
human equivalent absorbed dose, Salivary Glands ([1]; Adult female (60 kg)): 0.00241 ± 0.000068 mGy/MBq
human equivalent absorbed dose, Small Intestine ([1]; Adult female (60 kg)): 0.00325 ± 0.000114 mGy/MBq
human equivalent absorbed dose, Spleen ([1]; Adult female (60 kg)): 0.00432 ± 0.0003 mGy/MBq
human equivalent absorbed dose, Stomach Wall ([1]; Adult female (60 kg)): 0.01925 ± 0.002944 mGy/MBq
human equivalent absorbed dose, Thymus ([1]; Adult female (60 kg)): 0.00498 ± 0.000454 mGy/MBq
human equivalent absorbed dose, Thyroid ([1]; Adult female (60 kg)): 0.00297 ± 0.000118 mGy/MBq
human equivalent absorbed dose, Total Body ([1]; Adult female (60 kg)): 0.00366 ± 0.000121 mGy/MBq
human equivalent absorbed dose, Urinary Bladder Wall ([1]; Adult female (60 kg)): 0.00288 ± 0.000114 mGy/MBq
human equivalent absorbed dose, Uterus ([1]; Adult female (60 kg)): 0.00284 ± 0.000085 mGy/MBq
Effective Dose (whole-body) ([1]; Adult male (73 kg)): 0.0067±0.002 mSv/MBq and 0.00673 ± 0.002757 mSv/MBq
human equivalent absorbed dose, Adrenals ([1]; Adult male (73 kg)): 0.00533 ± 0.000748 mGy/MBq
human equivalent absorbed dose, Brain ([1]; Adult male (73 kg)): 0.0014 ± 0.000022 mGy/MBq
human equivalent absorbed dose, Esophagus ([1]; Adult male (73 kg)): 0.00831 ± 0.004249 mGy/MBq
human equivalent absorbed dose, Eyes ([1]; Adult male (73 kg)): 0.00194 ± 0.000092 mGy/MBq
human equivalent absorbed dose, Gallbladder Wall ([1]; Adult male (73 kg)): 0.00602 ± 0.000876 mGy/MBq
human equivalent absorbed dose, Heart Wall ([1]; Adult male (73 kg)): 0.06753 ± 0.05072 mGy/MBq
human equivalent absorbed dose, Kidneys ([1]; Adult male (73 kg)): 0.00714 ± 0.000174 mGy/MBq
human equivalent absorbed dose, Left colon ([1]; Adult male (73 kg)): 0.00374 ± 0.000769 mGy/MBq
human equivalent absorbed dose, Liver ([1]; Adult male (73 kg)): 0.01568 ± 0.001377 mGy/MBq
human equivalent absorbed dose, Lungs ([1]; Adult male (73 kg)): 0.0135 ± 0.01113 mGy/MBq
human equivalent absorbed dose, Osteogenic Cells ([1]; Adult male (73 kg)): 0.00223 ± 0.000391 mGy/MBq
human equivalent absorbed dose, Pancreas ([1]; Adult male (73 kg)): 0.00665 ± 0.002374 mGy/MBq
human equivalent absorbed dose, Prostate ([1]; Adult male (73 kg)): 0.0025 ± 0.000105 mGy/MBq
human equivalent absorbed dose, Rectum ([1]; Adult male (73 kg)): 0.00249 ± 0.000093 mGy/MBq
human equivalent absorbed dose, Red Marrow ([1]; Adult male (73 kg)): 0.0031 ± 0.000771 mGy/MBq
human equivalent absorbed dose, Right colon ([1]; Adult male (73 kg)): 0.00367 ± 0.000548 mGy/MBq
human equivalent absorbed dose, Salivary Glands ([1]; Adult male (73 kg)): 0.00226 ± 0.000156 mGy/MBq
human equivalent absorbed dose, Small Intestine ([1]; Adult male (73 kg)): 0.00325 ± 0.000446 mGy/MBq
human equivalent absorbed dose, Spleen ([1]; Adult male (73 kg)): 0.00378 ± 0.000828 mGy/MBq
human equivalent absorbed dose, Stomach Wall ([1]; Adult male (73 kg)): 0.01628 ± 0.005962 mGy/MBq
human equivalent absorbed dose, Testes ([1]; Adult male (73 kg)): 0.00204 ± 0.000046 mGy/MBq
human equivalent absorbed dose, Thymus ([1]; Adult male (73 kg)): 0.01004 ± 0.005999 mGy/MBq
human equivalent absorbed dose, Thyroid ([1]; Adult male (73 kg)): 0.00355 ± 0.00107 mGy/MBq
human equivalent absorbed dose, Total Body ([1]; Adult male (73 kg)): 0.00355 ± 0.000856 mGy/MBq
human equivalent absorbed dose, Urinary Bladder Wall ([1]; Adult male (73 kg)): 0.00247 ± 0.000136 mGy/MBq

COc1cccc2c1-c1ccc3c(c1C(Cc1ccc(F)cc1)O2)C(C)=CC(C)(C)N3 (racemic) [YJH08, 5-(4-fluorobenzyl)-10-methoxy-2,2,4-trimethyl-2,5-dihydro-1H-chromeno[3,4-f]quinoline]
recovery at 4 h, 2 μM (plasma protein): 100%
fraction unbound at 4 h, 2 μM ([2]; duplicate, read-out: % Bound (converted)): < 0.0001
fraction unbound at 4 h, 2 μM ([2]; read-out: % Bound Average (converted)): < 0.0001
